Calls of active or inactive are those of the source. The calls are words filed in the database; no cut-off is given here.
Legend:
[1] = Reduction in melanin production in mouse Melan-a cells at 5 uM measured after 72 hrs by microplate reader; type: functional
Melan-a [2] = assay: Reduction in MITF protein expression in mouse Melan-a cells at 5 uM measured after 72 hrs by Western blot analysis; type: functional, cell-based
Melan-a [3] = assay: Reduction in tyrosinase protein expression in mouse Melan-a cells at 5 uM measured after 72 hrs by Western blot analysis; type: functional, cell-based
Melan-a [4] = assay: Reduction in TRP1 protein expression in mouse Melan-a cells at 5 uM measured after 72 hrs by Western blot analysis; type: functional, cell-based
HepG2 [5] = assay: Inhibition of lipid accumulation in human HepG2 cells at 20 uM incubated for 24 hrs by Oil Red O staining analysis relative to oleic acid; type: functional
HepG2 [6] = assay: Increase in glycerol release in human HepG2 cells at 25 uM incubated for 24 hrs by microplate reader analysis; type: functional, cell-based
[7] = target: T1, Tyrosinase (Agaricus bisporus) (UniProt O42713); assay: Inhibition of mushroom tyrosinase activity at 5 uM measured after 1 hr by microplate reader analysis
T1 sequence (whole entry): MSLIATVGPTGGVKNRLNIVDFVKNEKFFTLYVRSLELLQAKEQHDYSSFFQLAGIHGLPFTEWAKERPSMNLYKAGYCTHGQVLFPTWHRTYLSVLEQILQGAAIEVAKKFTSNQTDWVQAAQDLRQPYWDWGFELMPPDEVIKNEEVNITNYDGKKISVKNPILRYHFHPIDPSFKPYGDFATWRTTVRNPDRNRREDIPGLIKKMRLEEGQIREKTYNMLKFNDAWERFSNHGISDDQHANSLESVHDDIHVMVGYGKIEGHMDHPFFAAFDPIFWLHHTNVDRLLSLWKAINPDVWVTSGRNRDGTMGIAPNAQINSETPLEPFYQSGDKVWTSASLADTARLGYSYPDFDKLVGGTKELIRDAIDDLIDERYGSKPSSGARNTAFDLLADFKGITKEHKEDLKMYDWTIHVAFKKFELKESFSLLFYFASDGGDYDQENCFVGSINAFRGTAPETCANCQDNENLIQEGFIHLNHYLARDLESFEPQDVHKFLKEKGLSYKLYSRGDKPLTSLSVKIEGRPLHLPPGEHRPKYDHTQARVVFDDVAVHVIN

In the case of `C/C(=C\Cc1ccc(=O)c(O)cc1C(C)C)CO`, the inhibition at 5 µM [1] was 10%, the Activity (Melan-a [2]) was “Active” and the Activity (Melan-a [3]) was “Active”. The Activity (Melan-a [4]) was “Active”, the inhibition at 20 µM (HepG2 [5]) was 29% and the Activity (HepG2 [6]) was “Active”. For the same molecule, the inhibition [7] was “Active”.
In the case of `C/C(=C\C[C@@]12C=C[C@]1(O)C(=O)C=C2C(C)C)CO`, the inhibition at 20 µM (HepG2 [5]) was 29% and the Activity (HepG2 [6]) was “Active”.
For `C/C(=C\C[C@]12C=C[C@@]1(O)C(=O)C=C2C(C)C)CO`, the inhibition at 20 µM (HepG2 [5]) was 29% and the Activity (HepG2 [6]) was “Active”.
For `C/C(=C\CC1=C[C@@H]2C(=O)C(O)=C[C@]12C(C)C)CO`, the inhibition at 20 µM (HepG2 [5]) was 29%.
In the case of `C/C(=C\CC1=C[C@H]2C(=O)C(O)=C[C@@]12C(C)C)CO`, the inhibition at 20 µM (HepG2 [5]) was 29%.
